Legend:
[1] = Stability of paclitaxel depending on pH; format: physicochemical
[2] = physchem
Description: Preferably 1 mg-150 mg, more preferably 10 mg to 90 mg and most preferably 40 mg to 60 mg of paclitaxel are dissolved in one ml of DMSO.

SMILES: CC(=O)O[C@H]1C(=O)[C@@]2(C)[C@H]([C@H](OC(=O)c3ccccc3)[C@]3(O)C[C@H](OC(=O)[C@H](O)[C@@H](NC(=O)c4ccccc4)c4ccccc4)C(C)=C1C3(C)C)[C@]1(OC(C)=O)CO[C@@H]1C[C@@H]2O (relative stereo) [paclitaxel, [2aR-[2a,4,4a,6,9(R*,S*),11,12,12a,12b]]-(benzoylamino)-hydroxybenzene propionic acid 6,12b-bis-(acetyloxy)-12-(benzoyloxy)-2a-3,4,4a,5,6,9,10,11,12,12a,12b-dodecahydro-4,11-dihydroxy-4a,8,13,13-tetramethyl-5-oxo-7,11-methano-1H-cyclodeca[3,4]benz[1,2-b]oxet-9-yl ester)]
- stability at alkaline pH ([1]; alkaline pH): comparatively instable
- stability at a pH between 3 and 5 ([1]; pH between 3 and 5): especially stable
- solubility in anhydrous ethanol [2]: highly soluble
- solubility in dimethyl sulfoxide (DMSO) [2]: highly soluble
- solubility in methanol [2]: highly soluble
- solubility ([2]; organic solvent or mixture): ≤ 150 mg/mL

Reference: patent US20100145266A1, “METHOD FOR LOADING STRUCTURED SURFACES” (priority 2007, published 2010)
